Measured values as given in EP1403247A1, “N-Alkanoylphenylalanine derivatives” (F.HOFFMANN-LA ROCHE AG, priority 1997, dated 1999).

Key:
[1] = target: T1, VLA-4 (a4b1 integrin) (Homo sapiens, UniProt P05556+P13612); experiment: VLA-4 / VCAM-1 Screening Assay (solid-phase, dual antibody ELISA); settings: Ramos cell-derived VLA-4 binding to immobilized recombinant human VCAM-1; 1 mM MnCl2, 2 hr at 37 °C
T1 construct: followed by 10 µl of Ramos cell-derived VLA-4; endogenous in cells; host or cells: Ramos cells (VLA-4 derived from them; method of extraction or purification not described)
T1 sequence (P13612 34-1032): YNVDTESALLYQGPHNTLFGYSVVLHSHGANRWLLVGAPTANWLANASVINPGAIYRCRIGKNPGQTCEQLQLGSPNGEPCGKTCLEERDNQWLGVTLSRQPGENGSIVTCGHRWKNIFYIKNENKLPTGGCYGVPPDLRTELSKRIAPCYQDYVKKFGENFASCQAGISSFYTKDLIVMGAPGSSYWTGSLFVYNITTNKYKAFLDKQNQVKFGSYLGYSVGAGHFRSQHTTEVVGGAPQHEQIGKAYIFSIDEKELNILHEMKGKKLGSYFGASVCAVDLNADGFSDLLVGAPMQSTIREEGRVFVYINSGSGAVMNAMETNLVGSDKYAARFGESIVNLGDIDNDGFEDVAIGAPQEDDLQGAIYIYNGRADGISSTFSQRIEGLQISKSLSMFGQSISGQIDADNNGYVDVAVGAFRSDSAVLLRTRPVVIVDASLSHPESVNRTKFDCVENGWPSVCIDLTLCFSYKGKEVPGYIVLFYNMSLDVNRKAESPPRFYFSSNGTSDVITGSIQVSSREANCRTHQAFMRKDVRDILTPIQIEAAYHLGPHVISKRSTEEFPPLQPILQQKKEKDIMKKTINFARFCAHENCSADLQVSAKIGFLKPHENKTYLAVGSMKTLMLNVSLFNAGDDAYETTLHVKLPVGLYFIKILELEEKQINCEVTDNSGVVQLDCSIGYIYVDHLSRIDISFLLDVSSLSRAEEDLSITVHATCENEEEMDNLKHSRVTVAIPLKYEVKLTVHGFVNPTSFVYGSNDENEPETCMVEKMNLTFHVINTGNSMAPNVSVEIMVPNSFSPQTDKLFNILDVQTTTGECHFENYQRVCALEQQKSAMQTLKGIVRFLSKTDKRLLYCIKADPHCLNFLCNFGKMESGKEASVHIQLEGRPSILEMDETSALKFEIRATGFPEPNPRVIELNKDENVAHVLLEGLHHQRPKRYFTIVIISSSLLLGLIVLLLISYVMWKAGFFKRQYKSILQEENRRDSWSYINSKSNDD
T1 sequence (P05556 21-798): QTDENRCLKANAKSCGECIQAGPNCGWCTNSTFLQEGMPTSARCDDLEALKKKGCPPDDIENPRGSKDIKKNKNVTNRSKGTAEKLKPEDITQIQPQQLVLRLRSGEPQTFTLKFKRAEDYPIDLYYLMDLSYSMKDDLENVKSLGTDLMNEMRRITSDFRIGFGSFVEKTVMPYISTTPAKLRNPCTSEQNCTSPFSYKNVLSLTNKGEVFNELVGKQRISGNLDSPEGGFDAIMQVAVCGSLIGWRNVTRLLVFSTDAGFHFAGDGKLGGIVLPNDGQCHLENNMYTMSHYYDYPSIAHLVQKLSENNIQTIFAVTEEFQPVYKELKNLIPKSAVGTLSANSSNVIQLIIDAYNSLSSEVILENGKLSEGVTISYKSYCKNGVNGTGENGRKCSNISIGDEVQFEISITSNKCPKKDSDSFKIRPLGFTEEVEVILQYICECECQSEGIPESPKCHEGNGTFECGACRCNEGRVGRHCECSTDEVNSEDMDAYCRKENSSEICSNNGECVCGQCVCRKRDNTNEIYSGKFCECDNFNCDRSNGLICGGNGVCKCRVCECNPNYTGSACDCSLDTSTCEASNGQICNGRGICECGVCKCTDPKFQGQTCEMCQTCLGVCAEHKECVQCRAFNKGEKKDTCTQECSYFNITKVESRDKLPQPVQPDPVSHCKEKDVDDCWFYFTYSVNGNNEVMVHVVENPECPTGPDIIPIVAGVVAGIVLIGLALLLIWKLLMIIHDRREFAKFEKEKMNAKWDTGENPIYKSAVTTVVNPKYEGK
Method: VLA-4 / VCAM-1 Screening Assay
VLA-4 antagonist activity, defined as ability to compete for binding to immobilized VCAM-1, was quantitated using a solid-phase, dual antibody ELISA. VLA-4 (a4b1 integrin) bound to VCAM-1 is detected by a complex of anti-integrin b1 antibody: HRP-conjugated anti-mouse IgG: chromogenic substrate (K-Blue). Initially, this entailed coating 96 well plates (Nunc Maxisorp) with recombinant human VCAM-1 (0.4 µg in 100 µl PBS), sealing each plate and then allowing the plates to stand at 4°C for ^~18 hr. […] On the day of assay, all plates are washed twice with VCAM Assay Buffer (200 µl/well of 50 mM Tris-HCl, 100 mM NaCl, 1 mM MnCl2, 0.05% Tween 20; pH 7.4). Test compounds are dissolved in 100% DMSO and then diluted 1:20 in VCAM Assay Buffer supplemented with 1mg/mL BSA (i.e., final DMSO = 5%). […] 100 µl per well of each dilution is added to the VCAM-coated plates, followed by 10 µl of Ramos cell-derived VLA-4. These plates are sequentially mixed on a platform shaker for 1 min, incubated for 2 hr at 37 °C, and then washed four times with 200 µl/well VCAM Assay Buffer. 100 µl of mouse anti-human integrin b1 antibody is added to each well (0.6 µg/mL in VCAM Assay Buffer + 1mg/mL BSA) and allowed to incubate for 1 hr at 37°C. At the conclusion of this incubation period, all plates are washed four times with VCAM Assay Buffer (200 µl/well). A corresponding second antibody, HRP-conjugated goat anti-mouse IgG (100 µl per well @ 1:800 dilution in VCAM Assay Buffer + 1mg/mL BSA), is then added to each well, followed by a 1 hr incubation at room temperature and concluded by three washes (200µl/well) with VCAM Assay Buffer. Color development is initiated by addition of 100 µl K-Blue per well (15 min incubation, room temp) and terminated by addition of 100 µl Red Stop Buffer per well. […] Results are calculated as % inhibition of total binding (i.e., VLA-4 + VCAM-1 in the absence of test compound).

[2] = target: T1, VLA-4 (a4b1 integrin); experiment: Ramos (VLA-4) / VCAM-1 Cell-Based Screening Assay (Ramos-VCAM-1 cell adhesion assay); settings: Calcein-AM labeled Ramos cells adhering to immobilized recombinant human VCAM-1; 45 min at room temperature
Text: Ramos (VLA-4) / VCAM-1 Cell-Based Screening Assay Protocol
Calcein-AM was purchased from Molecular Probes Inc.
VLA-4 (a4b1 integrin) antagonist activity, defined as ability to compete with cell-surface VLA-4 for binding to immobilized VCAM-1, was quantitated using a Ramos-VCAM-1 cell adhesion assay. Ramos cells bearing cell-surface VLA-4, were labeled with a fluorescent dye (Calcein-AM) and allowed to bind VCAM-1 in the presence or absence of test compounds.
Initially, this entailed coating 96 well plates (Nunc Maxisorp) with recombinant human VCAM-1 (100 ng in 100 µl PBS), sealing each plate and allowing the plates to stand at 4°C for ~18 hr. The VCAM-coated plates were subsequently washed twice with 0.05% Tween-20 in PBS, and then blocked for 1hr (room temperature) with 200 µl of Blocking Buffer (1% BSA/0.02% thimerosal) to reduce non-specific binding. Following the incubation with Blocking Buffer, plates were inverted, blotted and the remaining buffer aspirated. Each plate was then washed with 300 µl PBS, inverted and the remaining PBS aspirated.
Test compounds were dissolved in 100% DMSO and then diluted 1:25 in VCAM Cell Adhesion Assay Buffer (4 mM CaCl2, 4 mM MgCl2 in 50 mM TRIS-HCl, pH 7.5) (final DMSO = 4%). […] 100 µl/well of each dilution was added to the VCAM-coated plates, followed by 100 µl of Ramos cells (200,000 cells/well in 1% BSA/PBS). […] Plates were inverted to remove non-adherent cells, blotted and 300 µl/well PBS added. Plates were again inverted, blotted and the remaining buffer gently aspirated. 100 µl Lysis Buffer (0.1% SDS in 50 mM TRIS-HCl, pH 8.5) was added to each well and agitated for 2 min on a rotary shaking platform.

Row | Compound | IC50 [1] [nM] | IC50 [2] [nM]
1 | O=C(NC(Cc1ccc(NC(=O)c2c(Cl)cccc2Cl)cc1)C(=O)O)c1ccccc1Cc1ccccc1 [Example 31, 4-[[(2,6-dichlorophenyl)carbonyl]amino]-N-[[(2-phenylmethyl)phenyl]carbonyl]-L-phenylalanine] | 0.51 | –
2 | COc1ccc(Br)c(C(=O)NC(Cc2ccc(NC(=O)c3c(C)ccnc3C)cc2)C(=O)O)c1 (stereo not drawn) [Example 108] | 0.63 | 22
3 | Cc1cc(CC(NC(=O)c2c(C)cccc2Cl)C(=O)O)ccc1NC(=O)c1c(Cl)cccc1Cl (stereo not drawn) [Example 123] | 1.7 | 316

Other lines, results leading:

Row | IC50 [1] [nM] | IC50 [2] [nM] | Compound
4 | 4.5 | 439 | Cc1cc(CC(NC(=O)c2c(C)cccc2Cl)C(=O)O)ccc1NC(=O)CCc1cccc(O)c1 (stereo not drawn) [Example 120]
5 | 5.8 | 515 | Cc1cc(CC(NC(=O)c2c(C)cccc2Cl)C(=O)O)ccc1NC(=O)Cc1cccc(O)c1 (stereo not drawn) [Example 121]
